Key:
αvβ6 = target: T1, αvβ6 (Homo sapiens, UniProt P06756+P18564); assay: αvβ6 cell adhesion inhibition test (HT-29 cells on recombinant human LAP protein); format: cell-based; conditions: recombinant human LAP coating, 200 μM MnCl2, 1 hour, read-out: IC50 (rate of inhibition of cell adhesion, αvβ6)
T1 construct: endogenous in cells; host or cells: HT-29 cells
Method: Test Example 2 was performed by partially modifying the method of Henderson et al. (Nat Med., 19 (12), 1617-24, 2013). In Test Example 2, the same reagents as in Test Example 1 were used unless otherwise specified.
Recombinant human LAP protein (manufactured by R&D Systems, Inc., 246-LP-025) was prepared at […] with PBS, dispensed at 100 μL/well to a 96-well plate, and left standing overnight. The plate was washed with HBSS, then subjected to blocking treatment with DMEM containing 1% BSA, and used as a coated plate in the adhesion test.
HT-29 cells cultured in McCoy's 5A medium (manufactured by Thermo Fisher Scientific, Inc., 16600) containing 10% FBS and 1% penicillin/streptomycin/amphotericin B were recovered and suspended in DMEM containing 0.1% BSA and 200 μM MnCl2 to prepare a cell suspension. A test compound was added thereto.
(§1) The cell suspension of 5×10^5 cells/mL containing the test compound was added at 100 μL/well to the coated plate and left standing for 1 hour in a 5% CO2 incubator (37° C.). One hour later, the supernatant was removed, and the plate was washed with HBSS containing 200 μM MnCl2. The cells that adhered to each well in the plate were stained with crystal violet, and the cells were lysed, followed by absorbance measurement. Inhibition without substrate coating was defined as 100% inhibition, and inhibition when DMSO was added instead of the test compound was defined as 0% inhibition. The rate of inhibition of cell adhesion by the test compound was calculated according to the following expression.
Rate of inhibition of cell adhesion (%)=[1−{(Absorbance in the case of adding the test compound)−(Absorbance without substrate coating)}/{(Absorbance in the case of adding DMS)−(Absorbance without substrate coating)}]×100
(§2) An IC50 value was calculated from the rate of inhibition of cell adhesion by the test compound. A: IC50<3 nM, B: 3 nM≤IC50<10 nM, C: 10 nM≤IC50<30 nM, D: 30 nM≤IC50<100 nM, or E: IC50≥100 nM.

αvβ1 = target: T2, αvβ1 (UniProt G3HZ55+P06756); assay: αvβ1 cell adhesion inhibition test (αv-transfected CHO cells on human fibronectin); format: cell-based; conditions: human fibronectin coating, 1 mM MnCl2, 1 hour, read-out: IC50 (rate of inhibition of cell adhesion, αvβ1)
T2 construct: expressed in transfected cells; host or cells: CHO cells deficient in α5 gene, transfected with αv gene
Method: Test Example 1 was performed by partially modifying the method of Reed et al. (Sci Transl Med., 7 (288), 288ra79, 2015).
Human fibronectin (manufactured by Sigma-Aldrich Co. LLC, F0895) was prepared at 1.25 μg/mL with phosphate buffered saline (PBS), dispensed at 100 μL/well to a 96-well plate, and left standing overnight. The plate was washed with Hanks' balanced salt solution (HBSS), then subjected to blocking treatment with Dulbecco's modified Eagle medium (DMEM) containing 1% bovine serum-derived albumin (BSA) (FUJIFILM Wako Pure Chemical Corp., for cell culture, 017-22231), and used as a coated plate in the adhesion test.
αv-transfected cells (CHO cells deficient in α5 gene and transfected with αv gene) cultured in Ham's F-12 medium (FUJIFILM Wako Pure Chemical Corp., 087-08335) containing 10% fetal bovine serum (FBS), 1% penicillin/streptomycin/amphotericin B (manufactured by Thermo Fisher Scientific, Inc., 15240), 1 mM GlutaMAX Supplement (manufactured by Thermo Fisher Scientific, Inc., 35050), and 400 μg/mL hygromycin B (FUJIFILM Wako Pure Chemical Corp., 080-07683) were recovered and suspended in DMEM containing 1 mM MnCl2 (manufactured by Sigma-Aldrich Co. LLC, M1787) to prepare a cell suspension. A test compound dissolved in DMSO was added thereto.
as §1, with “1×10^6” for “5×10^5”, “HBSS.” for “HBSS containing 200 μM MnCl2.”
Rate of inhibition of cell adhesion (%)=[1−{(Absorbance in the case of adding the test compound)−(Absorbance without substrate coating)}/{(Absorbance in the case of adding DMSO)−(Absorbance without substrate coating)}]×100
as §2

T2 sequence (P06756 31-889 limits assumed): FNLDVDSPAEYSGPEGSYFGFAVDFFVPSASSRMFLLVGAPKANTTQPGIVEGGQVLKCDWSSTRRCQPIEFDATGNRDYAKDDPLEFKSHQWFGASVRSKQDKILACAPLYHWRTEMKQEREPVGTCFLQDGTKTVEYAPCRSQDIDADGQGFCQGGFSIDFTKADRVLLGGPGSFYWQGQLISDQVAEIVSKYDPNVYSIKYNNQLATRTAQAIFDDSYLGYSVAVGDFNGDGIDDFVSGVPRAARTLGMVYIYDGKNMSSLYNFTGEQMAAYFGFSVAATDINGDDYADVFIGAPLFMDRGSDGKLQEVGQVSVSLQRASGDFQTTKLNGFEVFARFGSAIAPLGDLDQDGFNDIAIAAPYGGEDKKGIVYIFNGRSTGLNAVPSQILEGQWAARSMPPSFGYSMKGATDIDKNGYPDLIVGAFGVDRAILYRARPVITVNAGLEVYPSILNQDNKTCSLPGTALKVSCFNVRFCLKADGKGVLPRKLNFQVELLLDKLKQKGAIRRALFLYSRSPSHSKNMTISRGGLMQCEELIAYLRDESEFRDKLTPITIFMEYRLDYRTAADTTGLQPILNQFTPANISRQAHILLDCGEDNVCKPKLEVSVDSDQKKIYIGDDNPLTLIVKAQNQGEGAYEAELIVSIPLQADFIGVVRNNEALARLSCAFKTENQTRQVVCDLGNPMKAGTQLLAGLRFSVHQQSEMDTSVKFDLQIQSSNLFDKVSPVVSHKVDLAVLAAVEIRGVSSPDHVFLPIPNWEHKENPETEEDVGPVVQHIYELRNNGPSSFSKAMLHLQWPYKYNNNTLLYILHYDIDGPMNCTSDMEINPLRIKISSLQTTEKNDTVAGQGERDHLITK
T2 sequence (P06756 891-1048 limits assumed): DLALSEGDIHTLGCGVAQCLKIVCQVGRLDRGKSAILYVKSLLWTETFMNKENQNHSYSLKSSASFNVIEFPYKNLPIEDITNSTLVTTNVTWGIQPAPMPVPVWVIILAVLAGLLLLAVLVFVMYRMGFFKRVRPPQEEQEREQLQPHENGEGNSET
T2 sequence (G3HZ55 21-798): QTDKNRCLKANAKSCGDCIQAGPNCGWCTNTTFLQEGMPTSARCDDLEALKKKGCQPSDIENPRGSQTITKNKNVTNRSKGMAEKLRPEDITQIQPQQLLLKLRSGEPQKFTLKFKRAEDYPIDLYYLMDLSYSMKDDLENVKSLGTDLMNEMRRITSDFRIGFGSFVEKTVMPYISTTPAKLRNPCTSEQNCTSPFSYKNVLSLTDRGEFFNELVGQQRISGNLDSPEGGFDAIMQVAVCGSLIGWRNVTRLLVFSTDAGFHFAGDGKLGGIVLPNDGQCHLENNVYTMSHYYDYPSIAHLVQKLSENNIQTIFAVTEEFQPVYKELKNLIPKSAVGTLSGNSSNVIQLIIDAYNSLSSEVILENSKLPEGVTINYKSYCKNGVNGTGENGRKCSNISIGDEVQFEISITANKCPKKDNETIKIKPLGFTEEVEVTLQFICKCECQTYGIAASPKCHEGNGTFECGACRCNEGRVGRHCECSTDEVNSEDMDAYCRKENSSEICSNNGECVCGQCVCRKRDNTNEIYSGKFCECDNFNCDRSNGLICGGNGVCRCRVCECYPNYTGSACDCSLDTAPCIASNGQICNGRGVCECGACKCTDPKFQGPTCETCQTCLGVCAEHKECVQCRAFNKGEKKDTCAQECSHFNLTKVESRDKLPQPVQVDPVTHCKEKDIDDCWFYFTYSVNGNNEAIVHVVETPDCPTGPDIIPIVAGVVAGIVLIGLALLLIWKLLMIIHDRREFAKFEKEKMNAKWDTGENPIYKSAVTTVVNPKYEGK
T1 sequence (P06756 31-889 limits assumed): as the sequence (P06756 31-889 limits assumed) above
T1 sequence (P06756 891-1048 limits assumed): as the sequence (P06756 891-1048 limits assumed) above
T1 sequence (P18564 22-788): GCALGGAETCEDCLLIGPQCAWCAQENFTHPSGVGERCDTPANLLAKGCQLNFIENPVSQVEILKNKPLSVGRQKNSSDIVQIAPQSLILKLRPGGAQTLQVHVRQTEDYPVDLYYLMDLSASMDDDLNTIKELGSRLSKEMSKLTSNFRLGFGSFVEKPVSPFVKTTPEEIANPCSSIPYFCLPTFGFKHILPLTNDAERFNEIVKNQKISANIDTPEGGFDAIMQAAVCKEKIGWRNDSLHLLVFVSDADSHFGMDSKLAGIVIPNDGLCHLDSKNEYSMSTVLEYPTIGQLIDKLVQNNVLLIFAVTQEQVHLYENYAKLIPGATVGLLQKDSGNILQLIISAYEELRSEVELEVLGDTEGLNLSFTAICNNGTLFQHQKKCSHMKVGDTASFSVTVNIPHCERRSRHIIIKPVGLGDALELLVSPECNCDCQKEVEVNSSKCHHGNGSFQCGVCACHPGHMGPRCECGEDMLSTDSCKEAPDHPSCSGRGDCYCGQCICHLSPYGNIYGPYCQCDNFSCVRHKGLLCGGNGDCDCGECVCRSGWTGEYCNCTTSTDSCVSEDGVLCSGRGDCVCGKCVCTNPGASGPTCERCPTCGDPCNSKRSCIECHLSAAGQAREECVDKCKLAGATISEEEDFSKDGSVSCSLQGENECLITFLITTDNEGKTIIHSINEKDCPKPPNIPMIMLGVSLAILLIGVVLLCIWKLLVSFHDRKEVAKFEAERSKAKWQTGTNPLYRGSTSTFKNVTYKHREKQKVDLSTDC

| Structure (SMILES) | IC50 (αvβ6) [nM] | IC50 (αvβ1) [nM] |
| --- | --- | --- |
| O=C(O)C[C@H](NC(=O)CNC(=O)c1cc(NC2=NCC(F)CN2)c2cn[nH]c2c1)c1cc(OC(F)(F)F)ccc1F (stereo partly drawn) [Example 33-(b), (3S)-3-(2-(4-((5-fluoro-1,4,5,6-tetrahydropyrimidin-2-yl)amino)-1H-indazole-6-carboxamido)acetamido)-3-(2-fluoro-5-(trifluoromethoxy)phenyl)propanoic acid] | < 3 | < 3 |
| O=C(O)C[C@H](NC(=O)CNC(=O)c1cc(NC2=NCC(F)CN2)c2cn[nH]c2c1)c1ccc(F)c(OC(F)(F)F)c1 (stereo partly drawn) [Example 34-(b), (3S)-3-(2-(4-((5-fluoro-1,4,5,6-tetrahydropyrimidin-2-yl)amino)-1H-indazole-6-carboxamido)acetamido)-3-(4-fluoro-3-(trifluoromethoxy)phenyl)propanoic acid] | < 3 | < 3 |
| O=C(O)C[C@H](NC(=O)CNC(=O)c1cc(NC2=NCC(F)CN2)c2cn[nH]c2c1)c1cccc(C(F)(F)F)c1 (stereo partly drawn) [Example 35-(b), (3S)-3-(2-(4-((5-fluoro-1,4,5,6-tetrahydropyrimidin-2-yl)amino)-1H-indazole-6-carboxamido)acetamido)-3-(3-(trifluoromethyl)phenyl)propanoic acid] | < 3 | 3 to 10 |
| O=C(O)C[C@H](NC(=O)CNC(=O)c1cc(NC2=NCC(F)CN2)c2cn[nH]c2c1)c1cccc(OC(F)(F)F)c1 (stereo partly drawn) [Example 36-(b), (3S)-3-(2-(4-((5-fluoro-1,4,5,6-tetrahydropyrimidin-2-yl)amino)-1H-indazole-6-carboxamido)acetamido)-3-(3-(trifluoromethoxy)phenyl)propanoic acid] | < 3 | 3 to 10 |
| O=C(O)C[C@H](NC(=O)CNC(=O)c1cc(NC2=NCC(F)CN2)c2cn[nH]c2c1)c1cccc(OC(F)F)c1 (stereo partly drawn) [Example 37-(b), (3S)-3-(3-(difluoromethoxy)phenyl)-3-(2-(4-((5-fluoro-1,4,5,6-tetrahydropyrimidin-2-yl)amino)-1H-indazole-6-carboxamido)acetamido)propanoic acid] | < 3 | 3 to 10 |
| O=C(O)C[C@H](NC(=O)CNC(=O)c1cc(NC2=NCC(F)CN2)c2cn[nH]c2c1)c1cccc(C(F)F)c1 (stereo partly drawn) [Example 38-(b), (3S)-3-(3-(difluoromethyl)phenyl)-3-(2-(4-((5-fluoro-1,4,5,6-tetrahydropyrimidin-2-yl)amino)-1H-indazole-6-carboxamido)acetamido)propanoic acid] | < 3 | < 3 |
| O=C(O)C[C@H](NC(=O)CNC(=O)c1cc(NC2=NCC(F)CN2)c2cn[nH]c2c1)c1cccc(C2CC2)c1 (stereo partly drawn) [Example 39-(b), (3S)-3-(3-cyclopropylphenyl)-3-(2-(4-((5-fluoro-1,4,5,6-tetrahydropyrimidin-2-yl)amino)-1H-indazole-6-carboxamido)acetamido)propanoic acid] | < 3 | < 3 |
| O=C(O)C[C@H](NC(=O)CNC(=O)c1cc(NC2=NCC(F)CN2)c2cn[nH]c2c1)c1cccc(OC2CC2)c1 (stereo partly drawn) [Example 40-(b), (3S)-3-(3-cyclopropoxyphenyl)-3-(2-(4-((5-fluoro-1,4,5,6-tetrahydropyrimidin-2-yl)amino)-1H-indazole-6-carboxamido)acetamido)propanoic acid] | < 3 | < 3 |
| O=C(O)C[C@H](NC(=O)CNC(=O)c1cc(NC2=NCC(F)CN2)c2cn[nH]c2c1)c1cccc(Cl)c1 (stereo partly drawn) [Example 41-(b), (3S)-3-(3-chlorophenyl)-3-(2-(4-((5-fluoro-1,4,5,6-tetrahydropyrimidin-2-yl)amino)-1H-indazole-6-carboxamido)acetamido)propanoic acid] | < 3 | 3 to 10 |
| O=C(O)C[C@H](NC(=O)CNC(=O)c1cc(NC2=NCC(F)CN2)c2cn[nH]c2c1)c1cccc(Br)c1 (stereo partly drawn) [Example 42-(b), (3S)-3-(3-bromophenyl)-3-(2-(4-((5-fluoro-1,4,5,6-tetrahydropyrimidin-2-yl)amino)-1H-indazole-6-carboxamido)acetamido)propanoic acid] | < 3 | 3 to 10 |
| O=C(O)C[C@H](NC(=O)CNC(=O)c1cc(NC2=NCC(F)CN2)c2cn[nH]c2c1)c1cccc(-n2cccn2)c1 (stereo partly drawn) [Example 43-(b), (3S)-3-(3-(1H-pyrazol-1-yl)phenyl)-3-(2-(4-((5-fluoro-1,4,5,6-tetrahydropyrimidin-2-yl)amino)-1H-indazole-6-carboxamido)acetamido)propanoic acid] | < 3 | 3 to 10 |
| Cc1cc(C)n(-c2cccc([C@H](CC(=O)O)NC(=O)CNC(=O)c3cc(NC4=NCC(F)CN4)c4cn[nH]c4c3)c2)n1 (stereo partly drawn) [Example 44-(b), (3S)-3-(3-(3,5-dimethyl-1H-pyrazol-1-yl)phenyl)-3-(2-(4-((5-fluoro-1,4,5,6-tetrahydropyrimidin-2-yl)amino)-1H-indazole-6-carboxamido)acetamido)propanoic acid] | < 3 | < 3 |
| O=C(O)C[C@H](NC(=O)CNC(=O)c1cc(NC2=NCC(F)CN2)c2cn[nH]c2c1)c1cccc(N2CCOCC2)c1 (stereo partly drawn) [Example 45-(b), (3S)-3-(2-(4-((5-fluoro-1,4,5,6-tetrahydropyrimidin-2-yl)amino)-1H-indazole-6-carboxamido)acetamido)-3-(3-morpholinophenyl)propanoic acid] | 3 to 10 | < 3 |
| O=C(O)C[C@H](NC(=O)CNC(=O)c1cc(NC2=NCC(F)CN2)c2cn[nH]c2c1)c1ccc(OC(F)F)cc1 (stereo partly drawn) [Example 46-(b), (3S)-3-(4-(difluoromethoxy)phenyl)-3-(2-(4-((5-fluoro-1,4,5,6-tetrahydropyrimidin-2-yl)amino)-1H-indazole-6-carboxamido)acetamido)propanoic acid] | 3 to 10 | 3 to 10 |
| O=C(O)C[C@H](NC(=O)CNC(=O)c1cc(NC2=NCC(F)CN2)c2cn[nH]c2c1)c1ccc(C(F)(F)F)cc1 (stereo partly drawn) [Example 47-(b), (3S)-3-(2-(4-((5-fluoro-1,4,5,6-tetrahydropyrimidin-2-yl)amino)-1H-indazole-6-carboxamido)acetamido)-3-(4-(trifluoromethyl)phenyl)propanoic acid] | 3 to 10 | 3 to 10 |
| O=C(O)C[C@H](NC(=O)CNC(=O)c1cc(NC2=NCC(F)CN2)c2c(F)n[nH]c2c1)c1cc(Cl)cc(C(F)(F)F)c1 (stereo partly drawn) [Example 48-(b), (3S)-3-(3-chloro-5-(trifluoromethyl)phenyl)-3-(2-(3-fluoro-4-((5-fluoro-1,4,5,6-tetrahydropyrimidin-2-yl)amino)-1H-indazole-6-carboxamido)acetamido) propanoic acid] | < 3 | 3 to 10 |
| O=C(O)C[C@H](NC(=O)CNC(=O)c1cc(NC2=NCC(F)CN2)c2c(Cl)n[nH]c2c1)c1cc(Cl)cc(C(F)(F)F)c1 (stereo partly drawn) [Example 49-(b), (3S)-3-(2-(3-chloro-4-((5-fluoro-1,4,5,6-tetrahydropyrimidin-2-yl)amino)-1H-indazole-6-carboxamido)acetamido)-3-(3-chloro-5-(trifluoromethyl)phenyl)propanoic acid] | < 3 | < 3 |

From patent publication US20230192661A1, “1, 4, 5, 6-TETRAHYDROPYRIMIDINE-2-AMINE DERIVATIVE” (UBE Corporation, priority 2020, published 2023)
